In article PMC4685510, “A Cell Biologist’s Field Guide to Aurora Kinase Inhibitors” (Frontiers in Oncology, 2015):

Columns and labels:
Test in all cases: biochemical
Format in all cases: biochemical
[1] = molecular target: 363 human kinases (including Aurora A/B/C) (Homo sapiens, UniProt P21802); conditions: FGFR2, [ATP] 5 µM; for remaining activity at 0.1 µM: 100 nM; for remaining activity at 0.1 µM / remaining activity at 0.5 µM: read-out: % Enzyme Activity (relative to DMSO controls)
Source text: (§1) However, the Aurora A/B selectivity ratios derived from our in vitro and in vivo data can be compared to prioritize inhibitors.

[2] = molecular target: 363 human kinases (including Aurora A/B/C) (Homo sapiens, UniProt Q13164); conditions: ERK5/MAPK7, [ATP] 5 µM; for remaining activity at 0.1 µM: 100 nM; for remaining activity at 0.1 µM / remaining activity at 0.5 µM: read-out: % Enzyme Activity (relative to DMSO controls)
Source text: as §1

[3] = molecular target: T1, 363 human kinases (including Aurora A/B/C) (Homo sapiens, UniProt Q56UN5); conditions: YSK4/MAP3K19; for remaining activity at 0.1 µM: 100 nM; for remaining activity at 0.1 µM / remaining activity at 0.5 µM: read-out: % Enzyme Activity (relative to DMSO controls)
T1 sequence (Q56UN5 1-1328): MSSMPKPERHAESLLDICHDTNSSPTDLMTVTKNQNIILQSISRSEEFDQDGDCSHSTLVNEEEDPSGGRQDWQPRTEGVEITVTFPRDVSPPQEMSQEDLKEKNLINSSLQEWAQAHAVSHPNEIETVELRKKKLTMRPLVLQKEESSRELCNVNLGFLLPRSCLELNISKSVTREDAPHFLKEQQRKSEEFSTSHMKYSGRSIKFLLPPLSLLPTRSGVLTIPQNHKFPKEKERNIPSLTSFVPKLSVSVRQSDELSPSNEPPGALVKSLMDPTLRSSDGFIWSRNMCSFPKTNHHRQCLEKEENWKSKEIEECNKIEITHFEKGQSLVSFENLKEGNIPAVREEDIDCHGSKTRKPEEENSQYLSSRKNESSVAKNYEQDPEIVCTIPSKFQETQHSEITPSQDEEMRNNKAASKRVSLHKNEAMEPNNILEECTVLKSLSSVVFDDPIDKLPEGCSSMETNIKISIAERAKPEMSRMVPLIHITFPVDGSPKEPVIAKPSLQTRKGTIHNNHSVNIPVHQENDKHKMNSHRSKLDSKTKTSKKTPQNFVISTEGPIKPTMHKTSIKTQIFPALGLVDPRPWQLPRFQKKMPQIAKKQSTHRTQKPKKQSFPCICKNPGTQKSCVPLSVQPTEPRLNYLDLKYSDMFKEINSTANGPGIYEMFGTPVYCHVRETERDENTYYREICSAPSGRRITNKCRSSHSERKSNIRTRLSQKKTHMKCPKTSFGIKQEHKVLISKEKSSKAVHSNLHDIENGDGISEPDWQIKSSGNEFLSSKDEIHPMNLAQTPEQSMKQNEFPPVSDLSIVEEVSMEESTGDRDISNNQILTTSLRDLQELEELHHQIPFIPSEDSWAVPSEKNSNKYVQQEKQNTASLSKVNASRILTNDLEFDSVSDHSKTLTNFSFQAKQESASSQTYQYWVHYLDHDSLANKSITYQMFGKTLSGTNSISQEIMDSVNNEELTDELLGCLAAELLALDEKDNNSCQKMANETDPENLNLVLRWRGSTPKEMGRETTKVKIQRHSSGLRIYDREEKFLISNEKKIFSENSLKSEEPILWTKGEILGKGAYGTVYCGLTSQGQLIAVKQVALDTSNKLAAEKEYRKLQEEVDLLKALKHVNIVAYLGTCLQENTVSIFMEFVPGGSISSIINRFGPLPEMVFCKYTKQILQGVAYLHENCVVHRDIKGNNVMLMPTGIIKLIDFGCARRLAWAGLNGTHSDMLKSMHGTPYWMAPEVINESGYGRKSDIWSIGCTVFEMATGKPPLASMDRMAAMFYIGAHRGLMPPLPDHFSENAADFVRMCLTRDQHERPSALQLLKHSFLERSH
Source text: as §1

[4] = molecular target: T2, 363 human kinases (including Aurora A/B/C) (Homo sapiens, UniProt Q99683); conditions: ASK1/MAP3K5, [ATP] 100 µM; for remaining activity at 0.1 µM: 100 nM; for remaining activity at 0.1 µM / remaining activity at 0.5 µM: read-out: % Enzyme Activity (relative to DMSO controls)
T2 sequence (Q99683 1-1374): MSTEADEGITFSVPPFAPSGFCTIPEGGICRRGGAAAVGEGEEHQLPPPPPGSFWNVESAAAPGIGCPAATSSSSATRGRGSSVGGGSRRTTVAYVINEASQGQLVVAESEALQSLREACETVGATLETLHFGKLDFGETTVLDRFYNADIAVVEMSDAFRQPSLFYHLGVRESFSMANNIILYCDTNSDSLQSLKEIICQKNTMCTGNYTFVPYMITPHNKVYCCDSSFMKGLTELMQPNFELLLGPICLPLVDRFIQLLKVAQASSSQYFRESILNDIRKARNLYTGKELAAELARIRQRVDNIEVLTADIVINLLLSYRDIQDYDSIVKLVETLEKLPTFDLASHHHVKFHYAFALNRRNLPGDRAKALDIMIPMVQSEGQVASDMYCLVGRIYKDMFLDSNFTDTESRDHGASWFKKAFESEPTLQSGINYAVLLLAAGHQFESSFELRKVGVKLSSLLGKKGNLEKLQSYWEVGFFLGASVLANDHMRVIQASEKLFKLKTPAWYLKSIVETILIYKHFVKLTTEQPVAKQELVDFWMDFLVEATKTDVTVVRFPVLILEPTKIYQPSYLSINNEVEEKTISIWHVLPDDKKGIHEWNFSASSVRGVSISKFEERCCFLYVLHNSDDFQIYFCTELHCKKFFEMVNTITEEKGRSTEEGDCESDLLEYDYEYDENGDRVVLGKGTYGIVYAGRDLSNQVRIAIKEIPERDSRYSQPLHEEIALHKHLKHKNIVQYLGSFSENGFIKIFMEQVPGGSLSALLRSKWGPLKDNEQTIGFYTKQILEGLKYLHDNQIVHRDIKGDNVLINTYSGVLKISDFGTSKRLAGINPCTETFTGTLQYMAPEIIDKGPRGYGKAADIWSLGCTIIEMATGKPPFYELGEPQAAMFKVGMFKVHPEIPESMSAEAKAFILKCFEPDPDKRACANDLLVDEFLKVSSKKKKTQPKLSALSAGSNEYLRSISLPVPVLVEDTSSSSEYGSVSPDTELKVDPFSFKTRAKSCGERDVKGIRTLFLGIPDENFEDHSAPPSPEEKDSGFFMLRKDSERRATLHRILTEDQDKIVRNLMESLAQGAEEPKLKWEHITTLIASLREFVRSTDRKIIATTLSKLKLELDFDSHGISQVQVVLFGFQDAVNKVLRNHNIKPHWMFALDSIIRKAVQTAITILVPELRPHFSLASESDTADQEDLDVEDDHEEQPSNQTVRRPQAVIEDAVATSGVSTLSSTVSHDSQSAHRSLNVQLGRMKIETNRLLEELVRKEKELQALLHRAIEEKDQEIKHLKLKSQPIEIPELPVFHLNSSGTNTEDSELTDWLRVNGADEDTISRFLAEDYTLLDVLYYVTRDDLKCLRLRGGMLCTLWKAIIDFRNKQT
Source text: as §1

[5] = molecular target: 363 human kinases (including Aurora A/B/C) (Homo sapiens, UniProt Q9NQU5); conditions: PAK6; for remaining activity at 0.1 µM: 100 nM; for remaining activity at 0.1 µM / remaining activity at 0.5 µM: read-out: % Enzyme Activity (relative to DMSO controls)
Sequence of 363 human kinases (including Aurora A/B/C) (Homo sapiens, UniProt Q9NQU5) (Q9NQU5 whole entry): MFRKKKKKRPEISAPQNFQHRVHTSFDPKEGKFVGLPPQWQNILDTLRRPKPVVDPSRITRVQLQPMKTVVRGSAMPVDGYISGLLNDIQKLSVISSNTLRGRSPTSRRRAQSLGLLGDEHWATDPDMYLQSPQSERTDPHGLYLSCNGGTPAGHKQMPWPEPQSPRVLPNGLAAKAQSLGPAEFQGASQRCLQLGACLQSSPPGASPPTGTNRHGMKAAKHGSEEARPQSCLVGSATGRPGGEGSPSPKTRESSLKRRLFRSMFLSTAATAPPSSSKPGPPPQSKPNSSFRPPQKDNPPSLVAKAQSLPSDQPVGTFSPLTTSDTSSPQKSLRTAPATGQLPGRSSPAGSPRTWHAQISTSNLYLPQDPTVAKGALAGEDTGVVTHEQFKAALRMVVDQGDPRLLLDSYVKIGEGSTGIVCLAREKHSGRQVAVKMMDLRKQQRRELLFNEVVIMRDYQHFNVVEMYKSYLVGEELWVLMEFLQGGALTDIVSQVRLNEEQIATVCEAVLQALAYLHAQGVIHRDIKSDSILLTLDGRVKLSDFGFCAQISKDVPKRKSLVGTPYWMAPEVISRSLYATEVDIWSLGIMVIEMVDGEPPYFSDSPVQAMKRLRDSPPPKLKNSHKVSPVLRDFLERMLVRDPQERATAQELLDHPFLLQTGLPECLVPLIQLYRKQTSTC
Source text: as §1

Sequence of 363 human kinases (including Aurora A/B/C) (Homo sapiens, UniProt P21802) (P21802 22-821): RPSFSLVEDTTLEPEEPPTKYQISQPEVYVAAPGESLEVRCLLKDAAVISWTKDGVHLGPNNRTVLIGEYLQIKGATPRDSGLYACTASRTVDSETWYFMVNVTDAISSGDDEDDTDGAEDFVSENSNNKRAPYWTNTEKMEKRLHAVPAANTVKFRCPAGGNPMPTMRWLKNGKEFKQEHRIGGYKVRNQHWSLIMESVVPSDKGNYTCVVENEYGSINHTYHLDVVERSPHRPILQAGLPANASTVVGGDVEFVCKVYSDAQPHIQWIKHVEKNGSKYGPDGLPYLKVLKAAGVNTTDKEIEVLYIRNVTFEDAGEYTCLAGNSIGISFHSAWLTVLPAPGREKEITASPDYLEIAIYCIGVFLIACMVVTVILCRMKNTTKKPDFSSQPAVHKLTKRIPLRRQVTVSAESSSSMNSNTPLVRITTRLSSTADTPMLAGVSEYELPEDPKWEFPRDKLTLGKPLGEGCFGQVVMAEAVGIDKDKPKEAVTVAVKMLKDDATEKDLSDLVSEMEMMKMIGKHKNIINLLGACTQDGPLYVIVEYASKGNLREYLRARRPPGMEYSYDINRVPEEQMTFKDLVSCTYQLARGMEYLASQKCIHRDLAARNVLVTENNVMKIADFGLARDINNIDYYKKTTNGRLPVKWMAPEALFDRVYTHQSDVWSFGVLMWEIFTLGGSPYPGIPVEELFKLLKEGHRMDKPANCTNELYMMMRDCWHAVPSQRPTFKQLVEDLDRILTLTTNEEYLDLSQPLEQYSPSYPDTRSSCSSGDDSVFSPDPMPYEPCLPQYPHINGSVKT
Sequence of 363 human kinases (including Aurora A/B/C) (Homo sapiens, UniProt Q13164) (Q13164 whole entry): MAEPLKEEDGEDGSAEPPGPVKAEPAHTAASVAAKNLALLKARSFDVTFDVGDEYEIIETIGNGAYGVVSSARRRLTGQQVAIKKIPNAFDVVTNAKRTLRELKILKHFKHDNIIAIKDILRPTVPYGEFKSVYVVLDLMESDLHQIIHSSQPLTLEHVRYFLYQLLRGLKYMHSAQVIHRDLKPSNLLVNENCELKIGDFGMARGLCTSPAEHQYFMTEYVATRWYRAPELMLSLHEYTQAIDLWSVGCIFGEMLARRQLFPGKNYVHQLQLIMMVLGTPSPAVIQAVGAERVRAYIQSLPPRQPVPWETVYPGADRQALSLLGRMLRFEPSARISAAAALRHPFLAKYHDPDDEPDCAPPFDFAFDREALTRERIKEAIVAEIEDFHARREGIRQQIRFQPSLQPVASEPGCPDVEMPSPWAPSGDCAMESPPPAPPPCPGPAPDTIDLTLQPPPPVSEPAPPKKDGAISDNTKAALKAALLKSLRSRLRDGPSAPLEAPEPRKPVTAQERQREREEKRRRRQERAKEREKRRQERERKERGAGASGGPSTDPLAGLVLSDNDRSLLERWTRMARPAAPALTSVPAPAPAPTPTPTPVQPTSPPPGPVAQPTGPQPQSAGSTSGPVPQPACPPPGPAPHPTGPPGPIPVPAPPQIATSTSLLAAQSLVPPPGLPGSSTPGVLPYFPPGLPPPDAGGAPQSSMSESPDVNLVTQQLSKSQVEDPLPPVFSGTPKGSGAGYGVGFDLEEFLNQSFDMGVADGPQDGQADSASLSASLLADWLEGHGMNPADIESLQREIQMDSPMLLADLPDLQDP

| Structure (SMILES) | remaining activity at 0.1 µM [1] | remaining activity at 0.1 µM [2] | remaining activity at 0.1 µM [3] | remaining activity at 0.1 µM [4] | remaining activity at 0.1 µM [5] | remaining activity at 0.5 µM ([1]; 500 nM) | remaining activity at 0.5 µM ([2]; 500 nM) | remaining activity at 0.5 µM ([3]; 500 nM) | remaining activity at 0.5 µM ([4]; 500 nM) | remaining activity at 0.5 µM ([5]; 500 nM) | % Enzyme Activity (relative to DMSO controls) ([1]; 500 nM) | % Enzyme Activity (relative to DMSO controls) ([2]; 500 nM) | % Enzyme Activity (relative to DMSO controls) ([3]; 500 nM) | % Enzyme Activity (relative to DMSO controls) ([4]; 500 nM) | % Enzyme Activity (relative to DMSO controls) ([5]; 500 nM) |
| --- | --- | --- | --- | --- | --- | --- | --- | --- | --- | --- | --- | --- | --- | --- | --- |
| CCn1cc(-c2ccnc3[nH]c(-c4cccc(CN(C)C)c4)cc23)c(-c2ccc(NC(=O)N(C)C)cc2)n1 [GSK1070916] | 43.3% | 97.6% | 99.2% | 79.6% | 103% | – | – | – | – | – | – | – | – | – | – |
| O=C(O)[C@]1(Cc2cccc(Nc3nccs3)n2)CC[C@@H](Oc2cccc(Cl)c2F)CC1 [MK-5108] | 39.7% | 95.3% | 16.1% | 85.6% | 99.8% | 11.2% | 95.4% | 8.95% | 73.8% | 97% | – | – | – | – | – |
| O=C(c1cccc(Cl)c1F)N1CCN(Cc2cccc(Nc3nccs3)n2)CC1 [MK-8745] | – | – | – | – | – | 92% | 89% | 91.4% | 78.7% | 90.3% | 90.67% | 88.71% | 88.95% | 78.24% | 89.27% |
